We go through 19 molecules from patent publication US20130012491A1, “PYRIMIDINE DERIVATIVES FOR USE AS SPHINGOSINE 1-PHOSPHATE 1 (S1P1) RECEPTOR AGONISTS” (GLAXO GROUP LIMITED, priority 2010, published 2013).

Where a name gives a salt, the structure may show the parent alone.

The test system of the first data set is animal models of immune disorders.
Assay: not given
The conditions noted are these: cited from earlier work.
For the molecule `CCCCCCCCc1ccc(CCC(N)(CO)CO)cc1` [FTY720], the disease modulating activity entry is recorded as “disease modulating activity”.

The target of a further data set is T1, S1P3 (human Endothelial Differentiation G-protein Coupled Receptor 3 (EDG3)) (Homo sapiens, UniProt Q99500).
T1 construct: expressed in transfected cells; host or cells: GeneBLAzer EDG3-Ga15-NFAT-bla HEK 293T cells
T1 sequence (Q99500 whole entry): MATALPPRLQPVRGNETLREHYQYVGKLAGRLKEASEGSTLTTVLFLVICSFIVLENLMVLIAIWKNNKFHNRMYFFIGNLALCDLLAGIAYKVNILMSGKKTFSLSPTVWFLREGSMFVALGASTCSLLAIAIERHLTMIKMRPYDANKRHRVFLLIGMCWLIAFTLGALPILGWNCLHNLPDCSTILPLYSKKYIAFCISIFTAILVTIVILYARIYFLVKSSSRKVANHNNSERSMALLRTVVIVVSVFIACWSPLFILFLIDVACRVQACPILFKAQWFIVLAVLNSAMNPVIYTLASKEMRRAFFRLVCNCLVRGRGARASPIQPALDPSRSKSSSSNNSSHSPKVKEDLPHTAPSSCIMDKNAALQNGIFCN
Description: S1P3 GeneBlazer assay. The data set is classed as cell-based. Particulars: agonist, EDG3-Ga15-NFAT-bla HEK 293T cells, beta-lactamase FRET readout. The method, then:
GeneBLAzer EDG3-Ga15-NFAT-bla HEK 293T cells (contain the human Endothelial Differentiation G-protein Coupled Receptor 3 (EDG3) and a beta-lactamase reporter gene under control of a […] response element and a promiscuous G Protein, Ga15, stably integrated into the GeneBLAzer Ga15-NFAT-bla HEK 293T cell line) were harvested from growth medium and suspended in assay medium (90% DMEM, 10% Charcoal-stripped FBS, 0.1 mM NEAA, 25 mM HEPES (pH 7.3), 100 U/ml penicillin, 100 μg/ml streptomycin) at a density of ˜200,000 cells/ml.
All test compounds were dissolved in DMSO at a concentration of 10 mM and were prepared in 100% DMSO to provide 10 point dose response curves. Test compounds prepared by Bravo (Velocity11) were added to wells in columns 2-11 and 13-22; DMSO was added to wells in columns 12 and 23 as unstimulated controls and assay medium was added to wells in columns 1 and 24 as cell-free controls. An S1P3 agonist was added to wells in row 2, columns 2-11 as stimulated controls and test compounds were added to wells in row 2, columns 13-22 and rows 3-15, columns 2-11/13-22 (row 1 and 16 were empty and not used). Compounds in solution were added to the assay plate (Greiner 781090) using an Echo (Labcyte) dose-response program (50 nl/well). The unstimulated and cell-free controls were loaded with 50 nl/well pure DMSO to ensure that the DMSO concentration was constant across the plate for all assays.
50 μl of the cell suspension was added to each well in columns 2-23 of the plate (˜10,000 cells per well). 50 μl of assay medium was added to each well in the cell-free controls (columns 1 and 24). The cells were incubated overnight at 37° C./5% CO2.
10 μl of 6× substrate mixture (LiveBLAzer™-FRET B/G substrate (CCF4-AM) Cat # K1096 from Invitrogen, Inc.) was added to each well using Bravo and the plates incubated at room temperature for 2 h in the dark. The plate was finally read on EnVision using one excitation channel (409 nm) and two emission channels (460 nm and 530 nm).
The blue/green emission ratio (460 nm/530 nm) was calculated for each well, by dividing the background-subtracted Blue emission values by the background-subtracted Green emission values. The dose response curve is based on sigmoidal dose-response model. All ratio data was normalized based upon the maximum emission ratio of positive control and minimum emission ratio of negative control (DMSO) on each plate. The intrinsic activity (IA) of each compound would be the normalized percentage of its maximum response after curve fitting.
Consider `CCc1c(CCN2CCCC(C(=O)O)C2)cccc1-c1cnc(-c2ccc(CC(C)C)c(C#N)c2)nc1` (stereo not shown) [Example 38, 1-[2-(3-{2-[3-cyano-4-(2-methylpropyl)phenyl]-5-pyrimidinyl}-2-ethylphenyl)ethyl]-3-piperidinecarboxylic acid], for which the EC50 (in general, the concentration giving half of the maximal effect) was at most 10 µM.

Turning to `CCc1c(CN2CCC(C(=O)O)CC2)cccc1-c1cnc(-c2ccc(OC(C)C)c(C(F)(F)F)c2)nc1` [Example 13, 1-[(2-ethyl-3-{2-[4-[(1-methylethyl)oxy]-3-(trifluoromethyl)phenyl]-5-pyrimidinyl}phenyl)methyl]-4-piperidinecarboxylic acid], the concentration giving a half-maximal response (EC50) was at most 10 µM.

`CCc1c(CCN(C)CCC(=O)O)cccc1-c1cnc(-c2ccc(CC(C)C)c(C#N)c2)nc1` [Example 35, N-[2-(3-{2-[3-cyano-4-(2-methylpropyl)phenyl]-5-pyrimidinyl}-2-ethylphenyl)ethyl]-N-methyl-b-alanine] gave an EC50 of at most 10 µM.

Consider `CCc1c(CN2CC(C(=O)O)C2)cccc1-c1cnc(-c2ccc(OC(C)C)c(C(F)(F)F)c2)nc1` [Example 11, 1-[(2-ethyl-3-{2-[4-[(1-methylethyl)oxy]-3-(trifluoromethyl)phenyl]-5-pyrimidinyl}phenyl)methyl]-3-azetidinecarboxylic acid], for which the EC50 was at most 10 µM.

With `CCc1c(CCN2CCC(C(=O)O)C2)cccc1-c1cnc(-c2ccc(OC(C)C)c(Cl)c2)nc1` (stereo not shown) [Example 29, 1-{2-[3-(2-{3-chloro-4-[(1-methylethyl)oxy]phenyl}-5-pyrimidinyl)-2-ethylphenyl]ethyl}-3-pyrrolidinecarboxylic acid], the EC50 was at most 2 µM.

`CCc1c(CCN2CCC(C(=O)O)CC2)cccc1-c1cnc(-c2ccc(OC(C)C)c(Cl)c2)nc1` [Example 33, 1-{2-[3-(2-{3-chloro-4-[(1-methylethyl)oxy]phenyl}-5-pyrimidinyl)-2-ethylphenyl]ethyl}-4-piperidinecarboxylic acid]: the EC50 was at most 2 µM.

In turn, `CCc1c(CCN2CC[C@H](C(=O)O)C2)cccc1-c1cnc(-c2ccc(OC(C)C)c(Cl)c2)nc1` [Example 30, (3S)-1-{2-[3-(2-{3-chloro-4-[(1-methylethyl)oxy]phenyl}-5-pyrimidinyl)-2-ethylphenyl]ethyl}-3-pyrrolidinecarboxylic acid] showed an EC50 of at most 2 µM.

The molecule `CCc1c(CCN2CC(C(=O)O)C2)cccc1-c1cnc(-c2ccc(CC(C)C)c(C#N)c2)nc1` [Example 36, 1-[2-(3-{2-{3-cyano-4-(2-methylpropyl)phenyl}-5-pyrimidinyl}-2-ethylphenyl)ethyl]-3-azetidinecarboxylic acid] had an EC50 of at most 10 µM.

On to `CCc1c(CCN(C)CC(=O)O)cccc1-c1cnc(-c2ccc(OC(C)C)c(Cl)c2)nc1` [Example 27, N-{2-[3-(2-{3-chloro-4-[(1-methylethyl)oxy]phenyl}-5-pyrimidinyl)-2-ethylphenyl]ethyl}-N-methylglycine], for which the EC50 is at most 10 µM.

On to `CCc1c(CCN2CCC(C(=O)O)CC2)cccc1-c1cnc(-c2ccc(CC(C)C)c(C#N)c2)nc1` [Example 40, 1-[2-(3-{2-[3-cyano-4-(2-methylpropyl)phenyl]-5-pyrimidinyl}-2-ethylphenyl)ethyl]-4-piperidinecarboxylic acid], for which the EC50 was at most 2 µM.

`CCc1c(CCN2CCCC(C(=O)O)C2)cccc1-c1cnc(-c2ccc(OC(C)C)c(Cl)c2)nc1` (stereo not shown) [Example 31, 1-{2-[3-(2-{3-chloro-4-[(1-methylethyl)oxy]phenyl}-5-pyrimidinyl)-2-ethylphenyl]ethyl}-3-piperidinecarboxylic acid] showed an EC50 of at most 10 µM.

`CCc1c(CCN2CCC[C@H](C(=O)O)C2)cccc1-c1cnc(-c2ccc(OC(C)C)c(Cl)c2)nc1` [Example 32, (3S)-1-{2-[3-(2-{3-chloro-4-[(1-methylethyl)oxy]phenyl}-5-pyrimidinyl)-2-ethylphenyl]ethyl}-3-piperidinecarboxylic acid] showed an EC50 of at most 10 µM.

In turn, `CCc1c(CCN2CC(C(=O)O)C2)cccc1-c1cnc(-c2ccc(OC(C)C)c(Cl)c2)nc1` [Example 28, N-{2-[3-(2-{3-chloro-4-[(1-methylethyl)oxy]phenyl}-5-pyrimidinyl)-2-ethylphenyl]ethyl}-3-azetidinecarboxylic acid] had an EC50 of at most 2 µM.

For `CCc1c(CNCCC(=O)O)cccc1-c1cnc(-c2ccc(OC(C)C)c(C(F)(F)F)c2)nc1` [Example 10, N-[(2-ethyl-3-{2-[4-[(1-methylethyl)oxy]-3-(trifluoromethyl)phenyl]-5-pyrimidinyl}phenyl)methyl]-b-alanine], the EC50 was at most 2 µM.

Molecule `CCc1c(CCN2CCC[C@H](C(=O)O)C2)cccc1-c1cnc(-c2ccc(CC(C)C)c(C#N)c2)nc1` [Example 39, (3S)-1-[2-(3-{2-[3-cyano-4-(2-methylpropyl)phenyl]-5-pyrimidinyl}-2-ethylphenyl)ethyl]-3-piperidinecarboxylic acid] gave an EC50 of at most 10 µM.

For `CCc1c(-c2cnc(-c3ccc(OC(C)C)c(Cl)c3)nc2)cccc1C1CCN(CCC(=O)O)CC1` [Example 15, 3-{4-[3-(2-{3-chloro-4-[(1-methylethyl)oxy]phenyl}-5-pyrimidinyl)-2-ethylphenyl]-1-piperidinyl}propanoic acid trifluoroacetate], the EC50 was at most 10 µM.

Consider `CCc1c(CCN(C)CC(=O)O)cccc1-c1cnc(-c2ccc(CC(C)C)c(C#N)c2)nc1` [Example 34, N-[2-(3-{2-[3-cyano-4-(2-methylpropyl)phenyl]-5-pyrimidinyl}-2-ethylphenyl)ethyl]-N-methylglycine trifluoroacetate], for which the EC50 was at most 10 µM.

`CCc1c(CCN2CCC(C(=O)O)C2)cccc1-c1cnc(-c2ccc(CC(C)C)c(C#N)c2)nc1` (stereo not shown) [Example 37, 1-[2-(3-{2-[3-cyano-4-(2-methylpropyl)phenyl]-5-pyrimidinyl}-2-ethylphenyl)ethyl]-3-pyrrolidinecarboxylic acid] gave an EC50 of at most 10 µM.

The next data set relates to S1P3 knock-out animals.
Assay: not given
The conditions noted are these: unlike wild type mice; cited from earlier work.
On to `CCCCCCCCc1ccc(CCC(N)(CO)CO)cc1` [FTY720], for which the bradycardia entry is on record as “do not demonstrate bradycardia”.

Test system in another data set: not given
Assay: not given
Particulars: clinical studies, first 24 hours of treatment; cited from earlier work.
As for `CCCCCCCCc1ccc(CCC(N)(CO)CO)cc1` [FTY720], the bradycardia entry was “results in bradycardia”.

The next data set concerns circulating lymphocytes.
Assay: not given
The conditions noted are these: animals and man; cited from earlier work.
Regarding `CCCCCCCCc1ccc(CCC(N)(CO)CO)cc1` [FTY720], the “effect on circulating lymphocytes” value is “reduce circulating lymphocytes”.
